Patent US20230135366A1, “LIPOIC ACID CHOLINE ESTER COMPOSITIONS AND METHODS TO STABILIZE INTO […] RELEVANT DRUG PRODUCTS” (NOVARTIS AG, priority 2016, published 2023)
Where two headings read alike, the source gives them in different places.

Legend:
[1] = RP-HPLC (UV / ELSD) measurement of LACE micellar / associative (aggregated) species; type: physicochemical; settings: for equilibrium concentration of aggregates (% of the API peak): aqueous solution
Source text: While searching for causes for irritation, it was discovered that LACE, when dissolved in water, forms micelles and micellar aggregates, common to compounds that are amphiphilic in nature. As definition, examples of micelle-forming compounds are phosphatidyl choline, pegylated phosphatidyl choline, PEG-stearate, […], etc. While the micelle-formation phenomenon of LACE is not unexpected due to the amphiphilic nature of the molecule, the formation of these aggregates at lower temperatures were surprising. The presence of the aggregates was measured by a RP-HPLC method developed in-house. The measurement could be performed both with HPLC-UV and HPLC-ELSD. […] The equilibrium concentration of LACE Iodide aggregates are 39-41% of the API peak. In comparison, the equilibrium concentration of LACE chloride is <1%, after dispersion with agitated stirring.
• Two 200-g batches of 1.5% LACE Chloride were prepared at 25° C. after vehicle was deoxygenated with bubbled nitrogen. […] At time-points of 1 h, 3 h, 4 h, 6 h, 8 h, 9 h, and 24 h, about 5-15 mL was removed by syringe and sterile-filtered into eye-dropper bottles (5 mL/bottle), without nitrogen overlay in the bottle (apparatus was in use for the bulk batches). • Samples of all time-points were diluted to 10 mg/g, and then injected for RP-HPLC analysis with ELK.) detection within 30 minutes of removal from the bulk solution. • After the 24-hour time-point, bulk solutions were sterile-filtered, and each divided into two ˜50 mL portions—one held at 5° C., the other 50-mL portion held at 25° C. All portions were overlaid with nitrogen blown into the vessel. • At the end of the additional 24-hour hold time, each portion was filled into eye-dropper bottles with a nitrogen overlay in the bottle.
The final diluted LACE concentration was targeted to the level appropriate for RP-HPLC analysis (12.8 mg/mL of LACE-Iodide).
The approach was to generate complete inclusion complexes of LACE-Iodide in HP-B-CD, thus preventing any opportunity of aggregation of LACE molecules. Several batches of formulation were prepared using varying molar ratios of LACE-Iodide to HP-B-CD and the growth of aggregative species assessed over time. The formulations were stored at 5° C. The formation of associative species as measured by reverse phase HPLC was then reported as the area percent relative to the main LACE peak area.

bovine calf cornea [2] = system: bovine calf cornea
Procedure: (§1) LACE is delivered from these formulations as one of two salts: LACE-chloride and LACE-iodide. […] Therefore, both LACE and lipoic acid concentrations were assayed at each time point to evaluate permeability.
(§2) • a. 6 bovine eyeballs are dissected in a sterile laminar flow hood. • b. The corneas are extracted from the eyeball, briefly rinsed in sterile double-distilled water, and submerged in 3 mL of glutathione buffer (0.1% glutathione, oxidized, 6 mM sodium phosphate, pH 7, sterile-filtered) in a sterile culture dish. • c. The corneas are kept at 5° C. and used within 24 hours of excision. • d. Six 5 mL Franz vertical diffusion cells are cleaned with distilled water and isopropanol and air dried in a laminar flow cabinet prior to set up. • e. A small stir bar is placed within the receptor fluid chamber. The bottle of receptor fluid (5 mM phosphate-buffered saline with 0.1% Tween 20, pH 7.4, sterile-filtered) is tared on an analytical balance, and 4.5 mL of it is added to each Franz cell. The exact weight of the starting receptor fluid is recorded. • f. The cornea is gently rinsed of glutathione buffer with receptor fluid, and is placed on the donor pedestal. The donor chamber is placed on top of the cornea, and the entire assembly is fastened to the pedestal with a metal clip. At this point, 0.5 mL of additional receptor fluid is added via the sampling arm, until the fluid level reaches the point marked on the arm with a black line. The weight of this addition is also recorded. • g. The Franz diffusion apparatus is connected to a heater unit, and the temperature is raised to 37° C. When that temperature is reached, the formulation (“the donor solution”) is added to the donor chamber. • h. 0.2 mL of donor solution is added. Both the donor chamber and sampling arm are covered by paraffin when not in use to prevent evaporation. • i. Sampling is done via Drummond pipet, and only through the sampling arm. 200-300 μL of receptor fluid is sampled from each cell at each time point. • j. The sample is added to an amber glass HPLC vial with 0.3 mL glass insert, and is weighed. […]

[3] = General properties of LACE (solubility, solution pH, Log P, hygroscopicity); type: physicochemical; settings: for solubility: read-out: Solubility Profile
ocular surface = assay: Ocular irritation in rabbit irritation model (rabbit Draize model); type: in vivo
Source text: Another issue that confounded the pharmaceutical development of LACE ophthalmic solutions was incidences of ocular surface irritation observed in-vivo in a rabbit irritation model. The invention details unexpected parameters that contributed to, or caused ocular irritation and processes to eliminate or minimize these parameters. These parameters were not related to the formulation composition or properties of the drug substance, factors that normally correlated or attributed to ocular irritation.
FIGS. 12A and 12B generally provide a snapshot of the correlation of irritation to the micellar LACE species over a number of batches compounded.
Example 16 established the correlation between concentration of associative species and ocular irritation in an in-vivo model (rabbit Draize model).

bovine calf cornea [4] = assay: Corneal permeability, Franz Cell Diffusion apparatus; settings: Study 1
Procedure: as §1, §2

[5] = HPLC related compounds / related substances (oxidized LACE, lipoic acid, total impurities) of LACE solutions, mixing and stability studies; type: physicochemical
Procedure: Each of the solutions was also measured for degradants of lipoic acid choline ester. As mentioned earlier, the degradation mechanism of LACE is oxidative and hydrolytic, resulting in oxidized and hydrolyzed species.
• a) HPLC Method Setup: The HPLC assay consisted of a 50 minute mobile phase gradient made up of (A) 0.05M sodium phosphate monobasic, 0.005M 1-heptane sulfonic acid sodium salt, 0.2% v/v triethylamiue, adjusted to pH 4.5 with phosphoric acid; and (B) acetonitrile. The analytical column used is a YMC Pack ODS AO (4.6×250 mm, 5 μm, 120 Å), P/N AQ125052546WT; the analytical detection wavelength is 225 nm.
The eve dropper bottles with the two formulations were stored at 25° C. in a temperature-controlled incubator, and 0.5 mL (about 10 drops) sampled at each time point for analysis of related substances (by HPLC). The nitrogen blanket was not replenished, so some air got into the bottle with each sampling. This experiment was an early investigation of stability at room temperature (25±0.1° C.) with no protection from oxygen with continued sampling.
For the stability studies on both the clinical LACE-Chloride and the prototype LACE-Iodide formulation with a 1:1 molar ratio of HP-B-CD to LACE, the formulations were filtered, filled into LDPE eye dropper bottles, blanketed with nitrogen, and then placed inside barrier foil pouches with an oxygen scavenger. It is likely that some oxygen was still present in the pouch to start. After the first time point following T=0, however, the rise in oxidized LACE species stops, even at elevated temperatures, likely due to depletion of the remaining oxygen (FIG. 20).

[6] = Appearance of ophthalmic solution in stability studies; type: physicochemical; settings: API (Lot# 011510)
Procedure: in an effort to stabilize the drug formulation further, systematic stability studies (5° C., 25° C. and 40° C.) on mid-scale R&D batches were undertaken with bottled EV06 Ophthalmic Solution in the presence and absence of oxygen scavenging packets contained in zip-lock, vapor impermeable foil pouches.

[7] = Osmolality of formulation; type: physicochemical
Procedure: • The requisite osmolality range for drug-containing formulations and placebo is 280-320 mOsm/kg. Preferably, all LACE formulations need to he within 290-310 mOsm/Kg. • Since LACE has contributions to osmolality, each formulation will have varying concentrations of glycerol to achieve the requisite osmolality.
The target for Total Osmolality was 300 mOsm/kg.
Accordingly, a full series of solutions was prepared with slightly altered target osmolalities for the solutions without LACE, and therefore different target glycerol contents. All solutions were prepared using the same Alanine/Benzalkonium Chloride, pH 4.5 stock solution used in the placebos, so that the final composition was consistently: • 0.5% (5 mg/g) Alanine • 0.005% (0.05 mg/g) Benzalkonium Chloride • Small amounts of 1N Sodium Hydroxide, 1N Hydrochloric Acid, to adjust pH to 4.5 • Water for Inhalation (added to final weight of 5.0 g per formulation)

[8] = API (drug substance), lot AC-LACE-05-39 stored at 5 °C
[9] = Table 16-3, API (drug substance)
[10] = Table 17-1, API (drug substance)
[11] = Table 17-2, API (drug substance)
[12] = Table 17-3, API (drug substance)
[13] = Table 18-1, API (drug substance)
[14] = Table 18-2, API (drug substance)
[15] = API (Lot# 011510), RS analyzed Mar. 22, 2016

C[N+](C)(C)CCOC(=O)CCCCC1CCSS1.[I-] (stereo not shown) [LACE Iodide]
equilibrium concentration of aggregates (% of the API peak) [1]: 39-41% | aggregated species (% of the API) ([1]; at the end of 8 hours of mixing): ≤ 39% | % Associative Species at T0 ([1]; direct dissolution: Buffer with 0.6% NaCl, 1.5% PG): 40.9% | % Associative Species at T0 ([1]; direct dissolution: Buffer with 1.8% NaCl): 34.7% | % Associative Species at T0 ([1]; direct dissolution: Ethanol (78% final), then Buffer (22%)): 0.0% | % Associative Species at T0 ([1]; direct dissolution: Propylene Glycol (10%), then Buffer (90%)): 11.7% | overall percent of drug permeated (bovine calf cornea [2]): 3-7% | permeated species (bovine calf cornea [2]): almost entirely lipoic acid

C[N+](C)(C)CCOC(=O)CCCC[C@@H]1CCSS1 [LACE Chloride, Lipoic Acid Choline Ester Chloride]
Hygroscopicity [3]: Highly hygroscopic | Solution pH [3]: 7-7.5 | logP [3]: < 2 | solubility ([3]; in water): > 50 mg/mL | solubility ([3]; organic solvent or mixture, in acetonitrile): > 4 mg/mL | equilibrium concentration of aggregates (% of the API peak) ([1]; after dispersion with agitated stirring): < 1% | percent micellar species (% of the main LACE API Peak) ([1]; formulated under argon and refrigerated conditions): 8-10% | ocular irritation (ocular surface; solution formulated at refrigerated temperatures): extremely irritating | permeated species (bovine calf cornea [4]): somewhat more intact LACE permeated

C[N+](C)(C)CCOC(=O)CCCC[C@@H]1CCSS1.[Cl-] [API]
Related Substances RRT 1.00 API ([5]; API (drug substance)): 99.13 Area % | Related Substances RRT 1.65 ([5]; API (drug substance)): 0.34 Area % | Related Substances RRT 4.05 Lipoic Acid ([5]; API (drug substance)): 0.13 Area % | Related Substances, RRT 0.49 ([5]; API (drug substance)): 0.19 Area % | Related Substances, RRT 0.61 Oxidized Lace ([5]; API (drug substance)): 0.04 Area % | Related Substances, RRT 0.68 Oxidized Lace ([5]; API (drug substance)): 0.04 Area % | Related Substances, RRT 1.36 ([5]; API (drug substance)): 0.34 Area % | Related Substances, RRT 1.52 ([5]; API (drug substance)): 0.34 Area % | Related Substances, RRT 1.73 ([5]; API (drug substance)): 0.17 Area % | Related Substances, RRT 1.86 ([5]; API (drug substance)): 0.17 Area % | Related Substances, RRT 4.11 Lipoic Acid ([5]; API (drug substance)): 0.13 Area % | Total Impurities ([5]; API (drug substance)): 0.87 Area % | Related Substances RRT 0.51 ([5]; API (drug substance), lot AC-LACE-05-21 stored at 5 °C): 0.19 Area % | Related Substances RRT 0.51 [5, 8]: 0.10 Area % | Related Substances RRT 2.28 [5, 8]: 0.17 Area % | Related Substances RRT 2.28 ([5]; API (drug substance), lot AC-LACE-05-39 stored at 25 °C): 0.13 Area % | Related Substances RRT 0.51 [5, 9]: 0.10 Area % | Related Substances RRT 0.68 [5, 9]: 0.04 Area % | Related Substances RRT 1.00 [5, 9]: 99.13 Area % | Related Substances RRT 1.65 [5, 9]: 0.34 Area % | Related Substances RRT 2.28 [5, 9]: 0.17 Area % | Related Substances RRT 4.05 [5, 9]: 0.13 Area % | Total Impurities [5, 9]: 0.87 Area % | Related Substances RRT 0.50 [5, 10]: 0.20 Area % | Related Substances RRT 0.59 [5, 10]: 0.04 Area % | Related Substances RRT 1.27 [5, 10]: 0.34 Area % | Related Substances RRT 1.42 [5, 10]: 0.17 Area % | Related Substances RRT 3.00 [5, 10]: 99.13 Area % | Related Substances RRT 3.07 [5, 10]: 0.13 Area % | Total Impurities [5, 10]: 0.87 Area % | Related Substances RRT 0.50 [5, 11]: 0.20 Area % | Related Substances RRT 0.59 [5, 11]: 0.04 Area % | Related Substances RRT 1.00 [5, 11]: 99.13 Area % | Related Substances RRT 1.27 [5, 11]: 0.34 Area % | Related Substances RRT 1.42 [5, 11]: 0.17 Area % | Related Substances, Lipoic Acid (RRT not given) [5, 11]: 0.13 Area % | Total Impurities [5, 11]: 0.87 Area % | Related Substances RRT 0.50 [5, 12]: 0.20 Area % | Related Substances RRT 0.59 [5, 12]: 0.04 Area % | Related Substances RRT 1.00 [5, 12]: 99.13 Area % | Related Substances RRT 1.27 [5, 12]: 0.34 Area % | Related Substances RRT 1.42 [5, 12]: 0.17 Area % | Related Substances RRT 3.07 Lipoic Acid [5, 12]: 0.13 Area % | Total Impurities [5, 12]: 0.87 Area % | Related Substances RRT 0.51 [5, 13]: 0.10 Area % | Related Substances RRT 0.68 [5, 13]: 0.04 Area % | Related Substances RRT 1.00 API [5, 13]: 99.13 Area % | Related Substances RRT 1.65 [5, 13]: 0.34 Area % | Related Substances RRT 2.28 [5, 13]: 0.17 Area % | Related Substances RRT 4.05 Lipoic Acid [5, 13]: 0.13 Area % | Total Impurities [5, 13]: 0.87 Area % | Related Substances RRT 0.51 [5, 14]: 0.10 Area % | Related Substances RRT 0.68 [5, 14]: 0.04 Area % | Related Substances RRT 1.00 API [5, 14]: 99.13 Area % | Related Substances RRT 1.65 [5, 14]: 0.34 Area % | Related Substances RRT 2.28 [5, 14]: 0.17 Area % | Related Substances RRT 4.05 Lipoic Acid [5, 14]: 0.13 Area % | Total Impurities [5, 14]: 0.87 Area %

C[N+](C)(C)CCOC(=O)CCCC[C@@H]1CCSS1.[I-] [API (Lot# 011510)]
API Related Substances, Oxid. LACE RRT 0.48 [5, 15]: 0.08% | API Related Substances, Oxid. LACE RRT 0.52 [5, 15]: 0.04% | API Related Substances, RRT 1.74 [5, 15]: 0.24% | API Related Substances, RRT 2.00 [5, 15]: 0.20% | API Related Substances, Total Imp. [5, 15]: 0.56% | Appearance [6]: Complies

C[N+](C)(C)CCOC(=O)CCCC[C@@H]1CCSS1 [LACE, lipoic acid choline ester]
additional osmolality for every 1% LACE, average ([7]; earlier formulations): 48 mOsm/kg | additional osmolality for every 1% LACE ([7]; earlier formulations, range): 44-55 mOsm/kg | effect of LACE on osmolality for every 1% ([7]; from Table 6 solutions): 57-60 mOsm/kg | ocular irritation (ocular surface; compounded at room temperature): comfortable and non-irritating
